Results reported in patent EP1457483A1, “Cationic lipids with serine backbone” (Ruhr-Universität Bochum, priority 2003, dated 2004).

Tested on: COS-7 cells
Assay: Automated lipofection screening: GFP-luciferase reporter gene transfer (luciferase activity per protein content)
Format: cell-based, African green monkey
Settings: for Maximum transfection efficiency, MW (mean value), Helper lipid: DOPE / Maximum transfection efficiency, MW (mean value), Helper lipid: CHOL / Maximum transfection efficiency, MW (mean value), Helper lipid: without: pEGFPLuc plasmid, point is thousands separator; for Maximum transfection efficiency, MW (mean value), Helper lipid: DOPE: cationic/helper lipid 1:0.5 with DOPE; for Maximum transfection efficiency, MW (mean value), Helper lipid: DOPE / Maximum transfection efficiency, MW (mean value), Helper lipid: CHOL: at the LDR giving the maximum; for Maximum transfection efficiency, MW (mean value), Helper lipid: CHOL: cationic/helper lipid 1:0.5 with cholesterol; for Maximum transfection efficiency, MW (mean value), Helper lipid: without: no helper lipid, at the LDR (1:1-15:1) giving the maximum; for times higher activity in only one of the helper lipid combinations: best combination against the other combinations
Procedure: Screening the combinatorial lipid library for lipofection properties: Goal of this first step was to compare transfection efficiency of these structurally related cationic lipids with systematically modified hydrocarbon chain compositions for the development of suitable lipofection reagents and protocols and to study the relationship between structure and transfection efficiency of this new class of cationic lipids for gene transfer. All lipids (MS-1 to MS-50, table 1) were tested using a standard protocol: From each lipid, twenty four different lipoplexes were formed containing either no helper lipid or the helper lipids DOPE and CHOL at molar amounts (1:0.5), respectively, using eight different lipid:DNA-charge ratios (LDR) from 1:1 - 15:1, resulting in a lipofection profile for each lipid. The COS-7 cell-line was used for this lipofection study since COS-7 is easy to transfect and differences between the lipids are easy to identify.
Cell culture: SV40 transformed African green monkey kidney cell line COS-7 (ATCC CRL-1651) was routinely passaged in DMEM (GIBCO BRL, Karlsruhe, Germany), respectively, supplemented with 1% L-glutamin solution (100x), 1% Penicillin/Streptomycin solution (100x) (GIBCO BRL, Karlsruhe, Germany), and 10% FCS (BioWhittaker, Verviers, Belgium) at 37°C with 5% CO2 in humidified atmosphere. For the screening cells were maintained in 96-well culture plates (Greiner, Frickenhausen, Germany) in 100 µl DMEM, 10 % FCS, 1 % Penicillin-streptomycin in a humidified atmosphere at 37 °C/5 % CO2. 24 h prior to transfection, the cells were seeded into the microtiter plate at 10,000 cells per well to reach a confluency of 50 % at the time of transfection. Dendritic cells: Dendritic cells (DC) were derived from highly purified circulating CD14(+) monocytes: In a first step, peripheral blood mononuclear leukocytes (PBL) from healthy control persons were isolated by Ficoll-Paque (Pharmacia Biotech AB, Uppsala, Sweden) density centrifugation. The following immunomagnetic purification of the monocytes from PBL was performed using CD14 Microbeads and MiniMACS high gradient magnetic separation columns (Miltenyi Biotech, Bergisch Gladbach, Germany) according to manufacturer's instructions. Isolated monocytes (5 x 10^5/well) were cultured in RPMI supplemented with 10 % FCS, or serum-free Macrophage-SFM medium (GIBCO BRL, Karlsruhe, Germany) supplemented with human recombinant GM-CSF (0.05µg/ml) and IL-4 (0.025µg/ml) (PromoCell, Heidelberg, Germany) in 6-well plates. Aliquots of the cells were reanalyzed by FACS with anti-CD14 mAbs (Pharmingen, San Diego, CA). After 5-6 days non-adherent cells were collected and purity of DCs was determined by FACS analysis using a FACSort flow cytometer (Becton Dickinson, Mountain View, CA) and the CellQuest software for data processing as recently described (Jantscheff, P. et al., J. Immunol. Methods 163(1):91-7 (1993)).

Row | Compound | Maximum transfection efficiency, MW (mean value), Helper lipid: DOPE [RLU] | Maximum transfection efficiency, MW (mean value), Helper lipid: CHOL [RLU] | Maximum transfection efficiency, MW (mean value), Helper lipid: without [RLU] | times higher activity in only one of the helper lipid combinations
1 | CCCCCCCCCCCC[N+](C)(CCCCCCCCCCCC)[C@@H](CO)C(=O)NCCCCCN [compound 41] | 1.535 | 923 | 946 | –
2 | CCCCCCCCCCCC[N+](C)(CCCCCCCCCCCC)[C@@H](CO)C(=O)NCCN [compound 26] | 846 | 16.919 | 3.196 | –
3 | CCCCCCCCCCCCCCCCCC[N+](C)(CCCCCCCCCCCCCCCCCC)[C@@H](CO)C(=O)NCCN [MS-29] | – | – | – | 2.5 - 11.5 times
4 | CCCCCCCCCCCCCCN(CCCCCCCCCCCCCC)[C@@H](CO)C(=O)NCCCCCN [compound 17] | 453.572 | 237.556 | 249.143 | –
5 | CCCCCCCC/C=C\CCCCCCCCN(CCCCCCCC/C=C\CCCCCCCC)[C@@H](CO)C(=O)NCCCCCN [compound 20] | 26.482 | 67.308 | 31.897 | –
6 | CCCCCCCCCCCCN(CCCCCCCCCCCC)[C@@H](CO)C(=O)NCCCCN [compound 11] | 2.621 | 327 | 293 | –
7 | CCCCCCCCCCCCCCCC[N+](C)(CCCCCCCCCCCCCCCC)[C@@H](CO)C(=O)NCCN [MS-28] | – | – | – | 2.5 - 11.5 times
8 | CCCCCCCCCCCC[N+](C)(CCCCCCCCCCCC)[C@@H](CO)C(=O)NCCCCN [compound 36] | 26.495 | 3.829 | 2.064 | –
9 | CCCCCCCCCCCCCCCCCCN(CCCCCCCCCCCCCCCCCC)[C@@H](CO)C(=O)NCCCN [compound 9] | 10.033 | 76.850 | 2.183 | –
10 | CCCCCCCCCCCC[N+](C)(CCCCCCCCCCCC)[C@@H](CO)C(=O)NCCCCCCN [compound 46] | 560 | 766 | 956 | –
11 | CCCCCCCCCCCCCCCCCC[N+](C)(CCCCCCCCCCCCCCCCCC)[C@@H](CO)C(=O)NCCCN [compound 34] | 5.085 | 42.068 | 21.056 | –
12 | CCCCCCCCCCCCCCN(CCCCCCCCCCCCCC)[C@@H](CO)C(=O)NCCCN [compound 7] | 131.970 | 464.342 | 217.062 | –
13 | CCCCCCCCCCCCCCCCCC[N+](C)(CCCCCCCCCCCCCCCCCC)[C@@H](CO)C(=O)NCCN [compound 29] | 24.095 | 137.404 | 43.875 | –
14 | CCCCCCCCCCCCCCCCCCN(CCCCCCCCCCCCCCCCCC)[C@@H](CO)C(=O)NCCCCCN [compound 19] | 11.743 | 45.026 | 1.118 | –
15 | CCCCCCCC/C=C\CCCCCCCC[N+](C)(CCCCCCCC/C=C\CCCCCCCC)[C@@H](CO)C(=O)NCCCN [compound 35] | 43.284 | 56.949 | 34.736 | –
16 | CCCCCCCC/C=C\CCCCCCCC[N+](C)(CCCCCCCC/C=C\CCCCCCCC)[C@@H](CO)C(=O)NCCCCCCN [compound 50] | 39.590 | 70.812 | 17.315 | –
17 | CCCCCCCCCCCCCCN(CCCCCCCCCCCCCC)[C@@H](CO)C(=O)NCCN [compound 2] | 73.117 | 297.074 | 362.300 | –
18 | CCCCCCCCCCCCCCCCN(CCCCCCCCCCCCCCCC)[C@@H](CO)C(=O)NCCCCCCN [compound 23] | 27.118 | 16.398 | 14.969 | –
19 | CCCCCCCCCCCCCC[N+](C)(CCCCCCCCCCCCCC)[C@@H](CO)C(=O)NCCCCCCN [compound 47] | 50.115 | 56.974 | 533 | –
20 | CCCCCCCCCCCCCC[N+](C)(CCCCCCCCCCCCCC)[C@@H](CO)C(=O)NCCCCN [compound 37] | 63.765 | 148.560 | 1.972 | –
21 | CCCCCCCCCCCCCCCCCCN(CCCCCCCCCCCCCCCCCC)[C@@H](CO)C(=O)NCCN [compound 4] | 4.695 | 131.981 | 2.827 | –
22 | CCCCCCCC/C=C\CCCCCCCC[N+](C)(CCCCCCCC/C=C\CCCCCCCC)[C@@H](CO)C(=O)NCCCCN [compound 40] | 48.692 | 119.285 | 12.263 | –
23 | CCCCCCCCCCCCCCCCCCN(CCCCCCCCCCCCCCCCCC)[C@@H](CO)C(=O)NCCCCN [compound 14] | 11.715 | 42.270 | 1.956 | –
